Results from US6479673B1, “Antiretroviral enantiomeric nucleotide analogs” (Institute of Organic Chemistry and Biochemistry of the …, priority 1992, dated 2002).
Converted amounts (≈) assume the structure as drawn.

What was measured:
HIV-1 = HIV-1 induced cytopathicity in MT-4 cells; assay type: cell-based, human immunodeficiency virus type 1; conditions: for EC50 HIV-1: MT-4 cells, concentration inhibiting HIV-induced cytopathicity by 50%
Description: (§1) The activity of the compounds against HIV-1 and HIV-2 induced cytopathicity was examined in human lymphocyte MT-4 cells. […] The infected cell cultures were then incubated at 37° C. for 5 days in a humidified CO2-controlled incubator. Then, the cytopathicity of the virus was examined by determination of MT-4 cell viability by trypan blue dye staining.

C3H/3T3 cells = assay: Microscopic alteration of C3H/3T3 cell culture morphology; assay type: cell-based, murine; conditions: concentration that results in a microscopic alteration of C3H/3T3 cell culture morphology
MT-4 cells = assay: MT-4 cell viability (cytotoxicity); assay type: cell-based, human; conditions: for CC50: concentration reducing MT-4 cell viability by 50%
Description: The activity of the compounds against HIV-1 and HIV-2 induced cytopathicity was examined in human lymphocyte MT-4 cells. […]. The infected cell cultures were then incubated at 37° C. for 5 days in a humidified CO2-controlled incubator. Then, the cytopathicity of the virus was examined by determination of MT-4 cell viability by trypan blue dye staining. The results are summarized in Table 1 in comparison with the data on the prototype compounds.

[1] = tested on: Moloney murine sarcoma virus (MSV); assay: MSV-induced transformation of C3H/3T3 cells; assay type: cell-based; conditions: concentration inhibiting MSV-induced cell transformation by 50%
Description: The cells were seeded in 1-ml-wells of a 48-well microtiter plate and exposed to 80 PFU (plaque forming units) for 60-90 minutes. Then, the virus was removed and culture medium containing appropriate concentrations of the test compounds were added (1 ml per well). At day 6 post infection, MSV-induced transformation of the cell culture was examined microscopically.

HIV-2 = HIV-2 induced cytopathicity in MT-4 cells; assay type: cell-based, human immunodeficiency virus type 2; conditions: for EC50 HIV-2: MT-4 cells, concentration inhibiting HIV-induced cytopathicity by 50%
Description: as §1

[2] = tested on: Moloney murine sarcoma virus (MSV); assay: MSV infection in newborn NMRI mice, intraperitoneal administration; assay type: in vivo; parameters: protection of the animals against MSV-induced tumor development: unit not given here
Description: Two gram newborn NMRI mice were injected intramuscularly in the left hind leg with 50 μl of 250-fold diluted stock preparation of Moloney murine sarcoma virus. […] Another group of mice (20 animals) was administered RPMI-1640 medium as placebo. All compounds were solubilized in RPMI-1640 medium. The mice were observed daily for 20 days and the day of tumor initiation and the day of animal death was recorded for each animal. Statistical analyses were performed by calculating the standard deviation.

herpes viruses = conditions: racemic mixtures, prior art; cited from earlier work
retrovirus replication = assay: Anti-retrovirus activity in vitro (conclusions on HIV and MSV tests); assay type: cell-based; conditions: in vitro
[3] = tested on: Moloney murine sarcoma virus (MSV); assay: MSV infection in three-week-old NMRI mice, oral administration; assay type: in vivo; conditions: twice a day, 100 mg/kg (total dose) daily for five days
Description: Three-week-old NMRI mice (about 10 grams body weight) were injected intramuscularly in the left hind leg with 50 μl of 20-fold diluted stock preparation of Moloney murine sarcoma virus. Starting 2-4 hours before virus infection,six animals received an orally administered test compound twice a day at 100 mg/kg(total dose) daily for five subsequent days. The control (placebo) group consisted of 14 animals. The experiment was evaluated as described in Example 35.

[4] = 10 mg/kg single dose i.p., NMRI mice
[5] = 20 mg/kg single dose i.p., NMRI mice
[6] = 50 mg/kg single dose i.p., NMRI mice

C[C@@H](Cn1cnc2c(=O)[nH]c(N)nc21)OCP(=O)(O)O [(S)-PMPG, 9-(S)-(2-Phosphonomethoxypropyl)guanine]
EC50 HIV-1 (HIV-1): 1.2 µg/mL (≈ 3.96 µM) | MIC (C3H/3T3 cells): 8 µg/mL (≈ 26.4 µM) | CC50 (MT-4 cells): 45 µg/mL (≈ 148 µM) | EC50 MSV [1]: 0.95 µg/mL (≈ 3.13 µM) | EC50 HIV-2 (HIV-2): 1.3 µg/mL (≈ 4.29 µM)

C[C@H](Cn1cnc2c(=O)[nH]c(N)nc21)OCP(=O)(O)O [(R)-PMPG, 9-(R)-(2-Phosphonomethoxypropyl)guanine]
EC50 HIV-1 (HIV-1): 1.8 µg/mL (≈ 5.94 µM) | MIC (C3H/3T3 cells): 40 µg/mL (≈ 132 µM) | CC50 (MT-4 cells): >100 µg/mL | EC50 MSV [1]: 0.15 µg/mL (≈ 0.495 µM) | EC50 HIV-2 (HIV-2): 1.7 µg/mL (≈ 5.61 µM)

Nc1ncnc2c1ncn2C[C@@H](CF)OCP(=O)(O)O [(S)-FPMPA]
EC50 HIV-1 (HIV-1): 2.7 µg/mL (≈ 8.85 µM) | MIC (C3H/3T3 cells): >100 µg/mL | CC50 (MT-4 cells): >100 µg/mL | EC50 MSV [1]: 1.5 µg/mL (≈ 4.91 µM) | percentage of MSV-infected mice still alive at day 20 post infection ([2]; 10 mg/kg single dose i.p.): (40%) | Mean day of tumor initiation [2, 4]: 7.7 ± 2.4 days | percentage of MSV-infected mice still alive at day 20 post infection ([2]; 20 mg/kg single dose i.p.): (55%) | percentage of MSV-infected mice without tumor at day 20 post infection ([2]; 20 mg/kg single dose i.p.): (31%) | Mean day of tumor initiation [2, 5]: 11 ± 2.7 days | percentage of MSV-infected mice still alive at day 20 post infection ([2]; 50 mg/kg single dose i.p.): (100%) | percentage of MSV-infected mice without tumor at day 20 post infection ([2]; 50 mg/kg single dose i.p.): (100%) | Mean day of tumor initiation [2, 6]: >20 days | antiretroviral activity in vivo (in words) ([2]; dose of 50 mg/kg i.p.): no marked antiretroviral activity in vivo | EC50 HIV-2 (HIV-2): 2.6 µg/mL (≈ 8.52 µM)

C[C@H](Cn1cnc2c(N)ncnc21)OCP(=O)(O)O [PMPA]
antiherpetic effect (in words) (herpes viruses): devoid of any appreciable antiherpetic effect

Nc1ncnc2c1ncn2CCOCP(=O)(O)O [PMEA]
MIC (C3H/3T3 cells): >100 µg/mL | CC50 (MT-4 cells): 67 µg/mL (≈ 245 µM) | percentage of MSV-infected mice still alive at day 20 post infection ([2]; 10 mg/kg single dose i.p.): (43%) | percentage of MSV-infected mice without tumor at day 20 post infection ([2]; 10 mg/kg single dose i.p.): (24%) | Mean day of animal death [2, 4]: 14.2 ± 2.5 days | Mean day of tumor initiation [2, 4]: 9.8 ± 1.9 days | percentage of MSV-infected mice still alive at day 20 post infection ([2]; 20 mg/kg single dose i.p.): (66%) | percentage of MSV-infected mice without tumor at day 20 post infection ([2]; 20 mg/kg single dose i.p.): (44%) | Mean day of animal death [2, 5]: 14.7 ± 1.8 days | Mean day of tumor initiation [2, 5]: 10.6 ± 2.0 days | percentage of MSV-infected mice still alive at day 20 post infection ([2]; 50 mg/kg single dose i.p.): (90%) | percentage of MSV-infected mice without tumor at day 20 post infection ([2]; 50 mg/kg single dose i.p.): (90%) | Mean day of animal death [2, 6]: 16.0 days | Mean day of tumor initiation [2, 6]: 9.0 days

CC(Cn1cnc2c(=O)[nH]c(N)nc21)OCP(=O)(O)O (stereo not drawn) [PMPG]
antiherpetic effect (in words) (herpes viruses): appeared due to its substantial cytotoxicity

C[C@H](Cn1cnc2c(N)nc(N)nc21)OCP(=O)(O)O [(R)-PMPDAP, 9-(R)-(2-Phosphonomethoxypropyl)-2,6-Diaminopurine]
selectivity index (ratio cytotoxic dose/antivirally active dose) (HIV-1; HIV-1): > 2000 | EC50 HIV-1 (HIV-1): 0.05 µg/mL (≈ 0.165 µM) | EC50 retrovirus replication (retrovirus replication): 0.01 to 0.1 µg/mL | Mean day of tumor initiation [3]: 7.5 ± 1.0^*) day | Number of mice developing tumor (%) [3]: 67% | MIC (C3H/3T3 cells): >100 µg/mL | concentration non-toxic to the cells (MT-4 cells): 100 µg/mL | CC50 (MT-4 cells): >100 µg/mL | EC50 MSV [1]: 0.14 µg/mL (≈ 0.463 µM) | Mean day of tumor initiation ([2]; 2 mg/kg single dose i.p., NMRI mice): 11 days | percentage of MSV-infected mice still alive at day 20 post infection ([2]; 5 mg/kg single dose i.p.): (90) % | percentage of MSV-infected mice without tumor at day 20 post infection ([2]; 5 mg/kg single dose i.p.): (70) % | Mean day of tumor initiation ([2]; 5 mg/kg single dose i.p., NMRI mice): 12.8 days | percentage of MSV-infected mice still alive at day 20 post infection ([2]; 10 mg/kg single dose i.p.): (90) % | percentage of MSV-infected mice without tumor at day 20 post infection ([2]; 10 mg/kg single dose i.p.): (90) % | Mean day of tumor initiation [2, 4]: 11.5 days | percentage of MSV-infected mice still alive at day 20 post infection ([2]; 20 mg/kg single dose i.p.): (95) % | percentage of MSV-infected mice without tumor at day 20 post infection ([2]; 20 mg/kg single dose i.p.): (95) % | Mean day of tumor initiation [2, 5]: 11 days | anti-MSV activity in vivo relative to (R)-PMPA ([2]; i.p., NMRI mice): five fold superior over (R)-PMPA | protection of the animals against MSV-induced tumor development ([2]; single dose of 10-20 mg/kg i.p.): 90-95 | selectivity index (ratio cytotoxic dose/antivirally active dose) (HIV-2; HIV-2): > 2000 | EC50 HIV-2 (HIV-2): 0.06 µg/mL (≈ 0.199 µM)
